How the values were obtained:
[1] = system: amphetamine-induced hyperlocomotion in male Sprague-Dawley rats; test: Reversal of amphetamine-induced hyperlocomotion (rat hyperlocomotion assay); format: in vivo; conditions: vehicle 20% HP-β-CD
Method: A suitable assay for determination of the in vivo effects of the disclosed compounds is the induced hyperlocomotion animal model. Briefly, locomotor activity can be assessed as mean distance traveled (cm) in standard 16×16 photocell testing chambers measuring 43.2 cm (Length)×43.2 cm (Width)×30.5 cm (Height) (Med Associates, St. Albans, Vt.). Animals are habituated to individual activity chambers for at least 30 min prior to drug administration. Following administration of drug or vehicle, activity is recorded for a 90 minute time period. Data are expressed as the mean (±SEM) distance traveled recorded in 5 min intervals over the test period. The data are analyzed using repeated measures analysis of variance (ANOVA) followed by post-hoc testing using Dunnett's test, when appropriate. A difference is considered significant when p≦0.05.
The study was carried out using male Sprague-Dawley rats weighing 225 g-275 g, between 2-3 months old (Harlan, Inc., Indianapolis, Ind.). They were kept in the animal care facility certified by the American Association for the Accreditation of Laboratory Animal Care (AALAC) under a 12-hour light/dark cycle (lights on: 6 a.m.; lights off: 6 p.m.) and had free access to food and water. The experimental protocols performed during the light cycle were approved by the Institutional Animals Care and Use Committee of Vanderbilt University and conformed to the guidelines established by the National Research Council Guide for the Care and Use of Laboratory Animals
Locomotor activity was assessed as mean distance traveled (cm) in Smart Open Field locomotor activity test chambers (Hamilton-Kinder, San Diego, Calif.) with 16×16 photobeams with chambers measuring 43.2 cm (Length)×43.2 cm (Width)×30.5 cm (Height) (Med Associates, St. Albans, Vt.). The animals were habituated for 30 min and then dosed with vehicle or test compound. The rats were then placed into cages. At 60 min, all rats were injected subcutaneously with 1 mg/kg amphetamine or vehicle and then monitored for an additional 60 min. Animals are monitored for a total of 120 minutes.
Data are expressed as the mean (±SEM) distance traveled recorded in 5 min intervals over the test period. The data was analyzed using repeated measures analysis of variance (ANOVA) followed by post-hoc testing using Dunnett's test, when appropriate. A difference was considered significant when p≦0.05. The data for the dose-response studies were analyzed by a between-group analysis of variance. If there was a main effect of dose, then each dose group was compared with the vehicle amphetamine group. The calculations were performed using JMP IN 8 (SAS Institute, Cary, N.C.) statistical software and graphed using SigmaPlot9 (Saugua, Mass.).
Amphetamine sulfate was obtained from Sigma (Cat #A5880-1G; St. Louis, Mo.) and 10 mg was dissolved in 10 ml of water. Test compound, 2-(benzyloxy)-5-[(4-fluorophenyl)carbonyl]-4,5,6,7-tetrahydropyrazolo[1,5-a]pyrazine, was formulated in a volume of 10 ml with an amount of drug appropriate to the dosage indicated. The appropriate amount of compound was mixed into a 20% 2-hydroxypropyl-β-cyclodextrin (2-HP-β-CD) solution. The solution was formulated so that animals were injected with a volume equal to […]. The mixture was then ultrahomogenized on ice for 2-3 minutes using the Dismembrator (Fisher Scientific Model 150T). Then the pH was checked using 0-14 EMD strips and adjusted to a pH of 6-7 if necessary. […]

human mGluR5 = human mGluR5 (Homo sapiens, UniProt P41594); test: Cell-based functional Ca2+ mobilization assay (FDSS), potentiation of glutamate EC20 response, HEK293A cells transfected with human mGluR5a (H10H or H12H cell line); conditions: H10H cell line expressing recombinant human mGluR5, in presence of glutamate EC20, ** = compound is an antagonist; for EC50: read-out: pEC50 (converted); for Emax: HEK293-A, % of maximal glutamate response
Method: Human embryonic kidney (HEK) cells transfected with rat mGluR5 were plated in clear bottom assay plates for assay in a Functional Drug Screening System (FDSS). In the alternative assay, HEK cells transfected with human mGluR5 were plated for assay in the FDSS. In some cases the HEK cells transfected with human mGluR5 are the H10H cell line. Alternatively, the HEK cells transfected with human mGluR5 are the H12H cell line. […] The cells were loaded with a Ca^2+-sensitive fluorescent dye (e.g., Fluo-4), and the plates were washed and placed in the FDSS instrument. After establishment of a fluorescence baseline for about three seconds, the compounds of the present invention were added to the cells, and the response in cells was measured. Five minutes later, an mGluR5 agonist (e.g., glutamate, 3,5-dihydroxyphenylglycine, or quisqualate) was added to the cells, and the response of the cells was measured.
The above described assay can be operated in two modes. In the first mode, a range of concentrations of the present compounds were added to cells, followed by a single fixed concentration of agonist. If a compound acted as a potentiator, an EC50 value for potentiation and a maximum extent of potentiation by the compound at this concentration of agonist was determined by non-linear curve fitting. In the second mode, several fixed concentrations of the present compounds were added to various wells on a plate, followed by a range of concentrations of agonist for each concentration of present compound; the EC50 values for the agonist at each concentration of compound were determined by non-linear curve fitting. A decrease in the EC50 value of the agonist with increasing concentrations of the present compounds (a leftward shift of the agonist concentration-response curve) is an indication of the degree of mGluR5 potentiation at a given concentration of the present compound. An increase in the EC50 value of the agonist with increasing concentrations of the present compounds (a rightward shift of the agonist concentration-response curve) is an indication of the degree of mGluR5 antagonism at a given concentration of the present compound. The second mode also indicates whether the present compounds also affect the maximum response to mGluR5 to agonists.
Human mGluR5a cDNA in pCMV6-XL6 mammalian expression plasmid was purchased from OriGene Technologies, Inc. (catalogue number SC326357) and subcloned into pcDNA3.1(−). Human embryonic kidney (HEK)293A cells were then transfected with human mGluR5a pcDNA3.1(−) using LipofectAmine2000 (Invitrogen) and monoclones were selected and tested for functional response using a Ca^2+ mobilization assay. Monoclones were named for the species (“H” for human) plus the location on the plate (e.g. “10H”).
HEK cells transfected with the human mGluR5a receptor (H10H or H12H cell line) were plated at 15,000 cells/well in clear-bottomed poly-D-lysine-coated assay plates (BD Falcon) in glutamate-glutamine-free growth medium and incubated overnight at 37° C. and 5% CO2. Cell-lines used were either the H10H or H12H cell-lines expressing the human mGluR5 receptor. The following day, the growth medium was removed and the cells were washed with assay buffer containing 1× Hank's balanced salt solution (Invitrogen, Carlsbad, Calif.), 20 mM HEPES, 2.5 mM probenecid, pH 7.4 and left with 20 μL of this reagent. Following this step, the cells were loaded with calcium indicator dye, fluo-4 AM, to a final concentration of 2 μM and incubated for 40-45 min at 37° C. The dye solution was removed and replaced with assay buffer. Cell plates were held for 10-15 min at room temperature and were then loaded into the Functional Drug Screening System 6000 (FDSS 6000, Hamamatsu, Japan).
After establishment of a fluorescence baseline for about 3 seconds, the compounds of the present invention were added to the cells, and the response in cells was measured.

Sequence of human mGluR5 (P41594 21-1180 isoform P41594-2 limits assumed): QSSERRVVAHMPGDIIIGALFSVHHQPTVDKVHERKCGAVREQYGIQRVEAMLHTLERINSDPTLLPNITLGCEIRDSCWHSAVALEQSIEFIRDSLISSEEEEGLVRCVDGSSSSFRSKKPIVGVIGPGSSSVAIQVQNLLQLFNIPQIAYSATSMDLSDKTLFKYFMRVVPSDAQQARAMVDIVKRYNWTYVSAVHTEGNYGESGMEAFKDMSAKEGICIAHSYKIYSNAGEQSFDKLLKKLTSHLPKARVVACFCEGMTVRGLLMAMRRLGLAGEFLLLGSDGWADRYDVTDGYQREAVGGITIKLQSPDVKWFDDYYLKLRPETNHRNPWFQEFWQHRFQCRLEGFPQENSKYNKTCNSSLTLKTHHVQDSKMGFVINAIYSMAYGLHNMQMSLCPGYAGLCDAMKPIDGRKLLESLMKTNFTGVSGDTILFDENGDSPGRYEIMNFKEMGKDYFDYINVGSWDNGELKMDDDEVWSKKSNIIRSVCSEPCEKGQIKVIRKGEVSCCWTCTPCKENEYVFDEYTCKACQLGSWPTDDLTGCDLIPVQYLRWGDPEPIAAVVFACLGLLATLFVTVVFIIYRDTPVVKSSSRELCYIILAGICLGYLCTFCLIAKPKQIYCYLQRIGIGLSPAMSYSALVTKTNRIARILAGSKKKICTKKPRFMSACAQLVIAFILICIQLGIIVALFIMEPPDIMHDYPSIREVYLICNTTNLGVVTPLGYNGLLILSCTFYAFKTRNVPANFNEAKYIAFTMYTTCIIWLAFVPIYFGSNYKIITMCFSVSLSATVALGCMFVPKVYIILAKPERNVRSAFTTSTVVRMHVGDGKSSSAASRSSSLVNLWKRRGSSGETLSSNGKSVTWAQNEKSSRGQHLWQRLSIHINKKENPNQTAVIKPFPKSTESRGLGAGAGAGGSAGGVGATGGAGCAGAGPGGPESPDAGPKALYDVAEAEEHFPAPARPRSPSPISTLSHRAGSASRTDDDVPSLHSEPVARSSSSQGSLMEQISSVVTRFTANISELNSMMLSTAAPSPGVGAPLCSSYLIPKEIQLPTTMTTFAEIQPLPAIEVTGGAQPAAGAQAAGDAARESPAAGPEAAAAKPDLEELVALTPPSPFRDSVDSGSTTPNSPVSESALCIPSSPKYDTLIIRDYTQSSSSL

SMILES | melting point [°C] | EC50 (human mGluR5) [nM] | Emax (human mGluR5) [%] | % Reversal of amphetamine-induced hyperlocomotion ([1]; 3 mg/kg test compound p.o. + 1 mg/kg Amph s.c.) [%] | % Reversal of amphetamine-induced hyperlocomotion ([1]; 10 mg/kg test compound p.o. + 1 mg/kg Amph s.c.) [%] | % Reversal of amphetamine-induced hyperlocomotion ([1]; 30 mg/kg test compound p.o. + 1 mg/kg Amph s.c.) [%] | % Reversal of amphetamine-induced hyperlocomotion ([1]; 56.6 mg/kg test compound p.o. + 1 mg/kg Amph s.c.) [%] | % Reversal of amphetamine-induced hyperlocomotion ([1]; 100 mg/kg test compound p.o. + 1 mg/kg Amph s.c.) [%]
O=C(c1cccc(F)c1F)N1CCn2nc(OCc3ccccc3)cc2C1 [Example B115] | 122.7 | 537 | 40 |  |  |  |  | 
Cc1ncc(C(=O)N2CCn3nc(OCc4ccccc4)cc3C2)cn1 [Example B83] | 166.4 | > 30200 | 27 |  |  |  |  | 
N#Cc1cccc(C(=O)N2CCn3nc(OCc4ccccc4)cc3C2)c1 [Example B5] | 151.6 | 724 | 42 |  |  |  |  | 
O=C(c1ccc(F)cc1F)N1CCn2nc(OCc3ccccc3F)cc2C1 [Example B133] | 132.8 | 166 | 76 |  |  |  |  | 
O=C(c1cc(F)cc(F)c1)N1CCn2nc(OCc3ccccc3F)cc2C1 [Example B132] | 118.1 | 224 | 42 |  |  |  |  | 
N#Cc1cc(F)cc(C(=O)N2CCn3nc(OCc4cccc(F)c4)cc3C2)c1 [Example B101] | 118.2 | > 30200 | 32 |  |  |  |  | 
COc1ccc(COc2cc3n(n2)CCN(C(=O)c2ccc(F)cc2)C3)cc1 [Example B15] | 108.3 | > 30200 | 22 |  |  |  |  | 
N#Cc1cccc(COc2cc3n(n2)CCN(C(=O)c2ccccc2)C3)c1 [Example B95] | 150.4 | 66.1 | 48.5 |  |  |  |  | 

The next lines start with results.

melting point [°C] | EC50 (human mGluR5) [nM] | Emax (human mGluR5) [%] | SMILES | % Reversal of amphetamine-induced hyperlocomotion ([1]; 3 mg/kg test compound p.o. + 1 mg/kg Amph s.c.) [%] | % Reversal of amphetamine-induced hyperlocomotion ([1]; 10 mg/kg test compound p.o. + 1 mg/kg Amph s.c.) [%] | % Reversal of amphetamine-induced hyperlocomotion ([1]; 30 mg/kg test compound p.o. + 1 mg/kg Amph s.c.) [%] | % Reversal of amphetamine-induced hyperlocomotion ([1]; 56.6 mg/kg test compound p.o. + 1 mg/kg Amph s.c.) [%] | % Reversal of amphetamine-induced hyperlocomotion ([1]; 100 mg/kg test compound p.o. + 1 mg/kg Amph s.c.) [%]
187.7 |  |  | O=C(c1ccc(F)cc1)N1CCn2nc(OCc3ccccc3)cc2C1 [test compound, 2-(benzyloxy)-5-[(4-fluorophenyl)carbonyl]-4,5,6,7-tetrahydropyrazolo[1,5-a]pyrazine] | 14 | 32 | 44 | 42 | 41
135.2 | 234 | 64 | O=C(c1ccc(F)cc1)N1CCn2nc(OCc3ccccc3F)cc2C1 [Example B11] |  |  |  |  | 
> 300 | 126 | 60 | N#Cc1cccc(COc2cc3n(n2)CCN(C(=O)c2ccc(F)cc2)C3)c1 [Example B3, 3-[({5-[(4-fluorophenyl)carbonyl]-4,5,6,7-tetrahydropyrazolo[1,5-a]pyrazin-2-yl}oxy)methyl]benzonitrile] |  |  |  |  | 
118.9 | 339 | 59 | Cc1cccc(COc2cc3n(n2)CCN(C(=O)c2ccc(F)cc2)C3)c1 [Example B13] |  |  |  |  | 
99.3 | 2000 | 51 | Cc1ccccc1COc1cc2n(n1)CCN(C(=O)c1ccc(F)cc1)C2 [Example B14] |  |  |  |  | 
138.1 | > 30200 | 22 | O=C(c1ccc(F)cc1)N1CCn2nc(OCc3ccccn3)cc2C1 [Example B18] |  |  |  |  | 
178.8 | 457 | 53 | O=C(c1ccc(F)cc1)N1CCn2nc(OCc3ccncc3)cc2C1 [Example B20] |  |  |  |  | 

— patent US9029366B2, “Substituted bicyclic alkoxy pyrazole analogs as allosteric modulators of mGluR5 receptors” (Vanderbilt University, priority 2012, dated 2015)
